Activity calls are given as the source filed them. No cut-off for these calls is given here.

Our source for the inhibition in vivo and inhibition values is ChEMBL document CHEMBL3045167, “Synthesis and evaluation of antiinflammatory activity of substituted chalcone derivatives” (2010).

What all share (assay type): functional
Experiment [1] has as its system Mus musculus. The experiment can be described thus: Anti-inflammatory activity in Mus musculus Kunming (mouse) assessed as inhibition of xylene-induced ear edema at 200 mg/kg, po administered 1 hr prior to xylene challenge measured at 1 hr post xylene challenge relative to control.
In experiment [2] the test system is Mus musculus. The experiment can be described thus: Anti-inflammatory activity in Mus musculus Kunming (mouse) assessed as inhibition of xylene-induced ear edema at 50 mg/kg, po administered 2 hr prior to xylene challenge measured at 2 hr post xylene challenge relative to control.
Experiment [3] relates to Mus musculus. Kind of experiment: Anti-inflammatory activity in Mus musculus Kunming (mouse) assessed as inhibition of xylene-induced ear edema at 100 mg/kg, po administered 2 hr prior to xylene challenge measured at 2 hr post xylene challenge relative to control.
Experiment [4] relates to Mus musculus. The experiment can be described thus: Anti-inflammatory activity in Mus musculus Kunming (mouse) assessed as inhibition of xylene-induced ear edema at 200 mg/kg, po administered 4 hr prior to xylene challenge measured at 4 hr post xylene challenge relative to control.
Experiment [5] deals with Mus musculus. Kind of experiment: Anti-inflammatory activity in Mus musculus Kunming (mouse) assessed as inhibition of xylene-induced ear edema at 200 mg/kg, po administered 24 hr prior to xylene challenge measured at 24 hr post xylene challenge relative to control.
The test system of experiment [6] is Mus musculus. The experiment can be described thus: Anti-inflammatory activity in Mus musculus Kunming (mouse) assessed as inhibition of xylene-induced ear edema at 200 mg/kg, po administered 0.5 hr prior to xylene challenge measured at 0.5 hr post xylene challenge relative to control.
For experiment [7], the system named is Mus musculus. The experiment can be described thus: Anti-inflammatory activity in Mus musculus Kunming (mouse) assessed as inhibition of xylene-induced ear edema at 200 mg/kg, po administered 2 hr prior to xylene challenge measured at 2 hr post xylene challenge relative to control.
Experiment [8] deals with Mus musculus. Kind of experiment: Anti-inflammatory activity in Mus musculus Kunming (mouse) assessed as inhibition of xylene-induced ear edema at 200 mg/kg, po administered 3 hr prior to xylene challenge measured at 3 hr post xylene challenge relative to control.

As to `CN(C)c1ccc(/C=C/C(=O)c2ccc(O)cc2O)cc1`, the inhibition in vivo (as a rule, the percentage by which the read-out fell short of the control) at 200 mg/kg in the experiment with Mus musculus [1] was 45.8%; in the experiment with Mus musculus [4], 25.3%; with Mus musculus [5], 21.2%; with Mus musculus [6], 41.7%; in the experiment with Mus musculus [7], 62.5%; in the experiment with Mus musculus [8], 27.5%. The inhibition in vivo at 50 mg/kg with Mus musculus [2] stood at 15.1%. Moreover, the inhibition in vivo at 100 mg/kg with Mus musculus [3] stood at 32.9%.

Regarding `COc1cc(/C=C/C(=O)c2ccc(O)cc2)ccc1O`, the inhibition in vivo at 200 mg/kg in the experiment with Mus musculus [7] turned out to be 7.83%.

Take `COc1ccc(/C=C/C(=O)c2ccc(O)cc2O)cc1`: the inhibition in vivo at 200 mg/kg in the experiment with Mus musculus [7] amounted to 51.4%.

For `O=C(/C=C/c1ccc2c(c1)OCO2)c1ccc(O)cc1O`, the inhibition in vivo at 200 mg/kg in the experiment on Mus musculus [7] worked out at 22%.

`O=C(/C=C/c1ccccc1[N+](=O)[O-])c1ccc(O)cc1O`: in the experiment on Mus musculus [7], the inhibition in vivo at 200 mg/kg is 20.2%.

On to `COc1cc(/C=C/C(=O)c2ccc(O)cc2O)ccc1O` [HOMOBUTEIN], for which, in the experiment with Mus musculus [7], the inhibition in vivo at 200 mg/kg was 25.2%.

As to `Cc1ccc(/C=C/C(=O)c2ccc(O)cc2O)cc1`, the inhibition result in the experiment with Mus musculus [7] was “inactive”.

Turning to `CC(C)Cc1ccc(C(C)C(=O)O)cc1` (stereo unspecified) [IBUPROFEN], the inhibition in vivo at 200 mg/kg in the experiment with Mus musculus [1] turned out to be 41.6%; in the experiment with Mus musculus [4] it was 30.1%; in the experiment on Mus musculus [5], 20.6%; in the experiment with Mus musculus [6] it was 32.5%; in the experiment on Mus musculus [7], 53.5%; in the experiment with Mus musculus [8], 34.5%. Also, the inhibition in vivo at 50 mg/kg in the experiment with Mus musculus [2] worked out at 19.8%. The inhibition in vivo at 100 mg/kg in the experiment with Mus musculus [3] came to 33%.

Take `O=C(/C=C/c1cccc([N+](=O)[O-])c1)c1ccc(O)cc1O`: the inhibition in vivo at 200 mg/kg in the experiment on Mus musculus [7] was determined as 30%.

Turning to `CN(C)c1ccc(/C=C/C(=O)c2ccc(O)cc2)cc1`, the inhibition in vivo at 200 mg/kg in the experiment with Mus musculus [7] is 17.3%.

Turning to `O=C(/C=C/c1ccc(Cl)cc1Cl)c1ccc(O)cc1O`, in the experiment with Mus musculus [7], the inhibition in vivo at 200 mg/kg stood at 26%.

As to `O=C(/C=C/c1ccc(O)cc1)c1ccc(O)cc1` [4,4'-DIHYDROXYCHALCONE], in the experiment on Mus musculus [7], the inhibition in vivo at 200 mg/kg came to 5.42%.

For the compound `O=C(/C=C/c1ccc(O)c(O)c1)c1ccc(O)cc1O` [BUTEIN], in the experiment with Mus musculus [7], the inhibition in vivo at 200 mg/kg came out at 14.4%.

For `O=C(/C=C/c1ccc(Cl)cc1)c1ccc(O)cc1O`, the inhibition in vivo at 200 mg/kg in the experiment on Mus musculus [1] is 32.5%; with Mus musculus [4], 32.3%; with Mus musculus [5] it was 21.5%; in the experiment on Mus musculus [6], 30.2%; in the experiment on Mus musculus [7], 68.2%; in the experiment on Mus musculus [8] it was 33.6%. Besides, in the experiment with Mus musculus [2], the inhibition in vivo at 50 mg/kg is 18.6%. Moreover, the inhibition in vivo at 100 mg/kg in the experiment with Mus musculus [3] was determined as 49%.

For the compound `O=C(/C=C/c1ccc(O)cc1)c1ccc(O)cc1O` [ISOLIQUIRITIGENIN], the inhibition in vivo at 200 mg/kg in the experiment on Mus musculus [7] came out at 14.9%.
